Tests used:
[1] = target: T1, recombinant NAMPT (Homo sapiens, UniProt P43490); assay: Enzymatic NAMPT assay (CycLex NAMPT colorimetric coupled-enzyme reaction system); assay type: biochemical; conditions: for IC50: titration curves of Figure 3a, coupled-enzyme colorimetric assay, read-out: IC50 (NAMPT inhibitory activity)
T1 construct: purchased MEDICAL & BIOLOGICAL LABORATORIES CO., LTD; (CycLex NAMPT Colorimetric Assay Kit)
Protocol: For the inhibitory effects of 3a and 3b on NAMPT activity, recombinant NAMPT activity was measured using a coupled-enzyme reaction system (CycLex NAMPT Colorimetric Assay Kit: MEDICAL & BIOLOGICAL LABORATORIES CO., LTD., Nagoya, Japan) according to the manufacturer’s instructions, as described previously. Briefly, NAMPT enzyme and tested compounds were put on the 96-well transparent plate. […] After a brief incubation, the absorbance of the samples was detected at 450 nm on every 10 min until 60 min using a SYNERGY HTX (BioTek Instruments, Inc.; Winooski, VT, USA). The inhibition rates were calculated by the initial slope of the absorbance of the tested samples divided by that of the control wells. The IC50 values for the samples were calculated by 4-parameter logistic regression using Image J 1.48v (https://imagej.nih.gov/ij/).
Figure 3 Biochemical properties of 3a and 3b. […] NAMPT activity was measured using a coupled-enzyme reaction system (CycLex NAMPT colorimetric assay kit) in 96-well plate format using the one-step method. Data are the averages of three independent experiments, and the bars indicate the standard error (SE) values. (b) The anti-proliferative effects of 3a (circle) and 3b (triangle) on HCT116 cells were investigated as described previously. HCT116 cells were treated with the indicated concentrations of each inhibitor with (closed symbol) or without (open symbol) 100 μM NMN for 72 h. The cell activity (% of control) was measured by use of the WST-8 assay. Data are presented as the means of three independent experiments ± SE, and the bars indicate the SE values.

[2] = system: NAD+ levels in the cancer cells; assay: Reduction of NAD+ levels in the cancer cells after 24 h-treatment; assay type: cell-based, human
Protocol: (§1) To confirm the marked differences of anti-NAMPT activities between 3a and 3b, the anti-proliferation effects of these inhibitors on the human colon cancer cell line HCT116 were examined after continuous exposure for 72 h. […] In addition, there was little cytotoxicity on non-cancer cell lines, such as TIG-120, WI38 and MRC-5 cells. Both 3a and 3b caused more than 90% reduction of NAD^+ levels in the cancer cells after 24 h-treatment and thereby induced cell death.

[3] = system: HCT116 cells; assay: Cell activity (anti-proliferation) assay, WST-8, 72 h; assay type: cell-based, human; conditions: for rescue of HCT116 cells from cell death by supplementation of NMN: 100 μM NMN in the cell culture medium, 72 h; for EC50: Homo sapiens, HCT-116, read-out: 50% effective concentration (EC50), anti-proliferation, HCT116, continuous exposure for 72 h, WST-8
Protocol: as §1
HCT116 cell was obtained from American Type Culture Collection (ATCC) (Manassas, US) and cultured in Dulbecco’s modified Eagle medium (DMEM) (FUJIFILM Wako Pure Chemical Corporation) supplemented with 10% of fetal bovine serum (Biosera Europe; Nuaillé, France), 100 Units/mL of penicillin G and 100 μg/mL of Streptomycin (FUJIFILM Wako Pure Chemical Corporation).
One thousand HCT116 cells were inoculated into the 96-well transparent cell culture plate and cultured for 24 h. The medium was changed to new medium that contained the tested compounds and was further cultivated for 72 h. Following the culture, 1/10 volume of the WST-8 reagent (FUJIFILM Wako Pure Chemical Corporation) was added and incubated for 1 h. After the incubation, the absorbance of the samples was detected at 450 nm using a SYNERGY HTX (BioTek Instruments, Inc.). Cell activity was expressed as percentage of control cells treated with vehicle alone.
Figure 3 Biochemical properties of 3a and 3b. (a) The inhibitory activities of 3a (open circle), 3b (open triangle) and 1 (open square) against NAMPT enzyme were examined, as described previously. NAMPT activity was measured using a coupled-enzyme reaction system (CycLex NAMPT colorimetric assay kit) in 96-well plate format using the one-step method. Data are the averages of three independent experiments, and the bars indicate the standard error (SE) values. (b) The anti-proliferative effects of 3a (circle) and 3b (triangle) on HCT116 cells were investigated as described previously. HCT116 cells were treated with the indicated concentrations of each inhibitor with (closed symbol) or without (open symbol) 100 μM NMN for 72 h. The cell activity (% of control) was measured by use of the WST-8 assay. Data are presented as the means of three independent experiments ± SE, and the bars indicate the SE values.

T1 sequence (P43490 whole entry): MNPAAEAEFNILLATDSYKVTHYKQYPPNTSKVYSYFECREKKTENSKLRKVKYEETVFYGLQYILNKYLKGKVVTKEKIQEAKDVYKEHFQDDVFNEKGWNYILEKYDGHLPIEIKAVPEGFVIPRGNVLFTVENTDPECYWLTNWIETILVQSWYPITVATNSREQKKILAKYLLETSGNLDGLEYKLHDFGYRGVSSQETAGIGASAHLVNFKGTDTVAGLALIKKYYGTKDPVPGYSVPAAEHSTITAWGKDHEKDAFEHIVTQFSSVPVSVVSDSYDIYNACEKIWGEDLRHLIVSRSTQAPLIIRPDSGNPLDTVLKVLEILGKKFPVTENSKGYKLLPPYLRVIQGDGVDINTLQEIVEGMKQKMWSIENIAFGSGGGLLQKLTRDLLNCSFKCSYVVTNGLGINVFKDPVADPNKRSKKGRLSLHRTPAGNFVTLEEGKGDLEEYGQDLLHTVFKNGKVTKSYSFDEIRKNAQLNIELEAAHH

| fold weaker NAMPT inhibitory activity than 3a ([1]; ratio of IC50 values, versus 3a) | IC50 [1] [nM] | fold higher EC50 than 3a ([3]; HCT116, 72 h, ratio of EC50 values, versus 3a) | EC50 [3] [nM] | fold stronger NAMPT inhibitory activity than 1 ([1]; ratio of IC50 values, versus 1) | SMILES | reduction of NAD+ levels [2] | rescue of HCT116 cells from cell death by supplementation of NMN [3] |
| --- | --- | --- | --- | --- | --- | --- | --- |
| about 50 fold | 5060 | approximately 200 fold | 87.5 | – | O=C(NCCCCN1CCN(C(=O)c2ccccc2)CC1)c1cc2cnccc2[nH]1 [Compound 3b, N-(4-(4-Benzoylpiperazin-1-yl)butyl)-1H-pyroro[3,2-c]pyridine-2-carboxamide] | more than 90% | significantly rescue |
| – | 110 | – | 0.48 | approximately 5 fold | O=C(NCCCCC1CCN(C(=O)c2ccccc2)CC1)c1cc2cnccc2[nH]1 [Compound 3a, N-(4-(1-benzoylpiperidin-4-yl)butyl)-1H-pyrrolo[3,2-c]pyridine-2-carboxamide] | more than 90% | significantly rescue |
